This is an account of results in patent US20220016273A1, “COMPOSITION FOR DIAGNOSIS OF FUNGAL INFECTION” (CNCURE BIOTECH INC., priority 2019, published 2022).

Test [1] relates to A. fumigatus lung infection. As to the kind of experiment: microPET imaging in A. fumigatus lung infection small animal model. Conditions: Balb/c mice infected with A. fumigatus in the lung; 7.4 MBq tail vein; image 2 hours after injection (FIG. 4). In kind it is in vivo. Here is the method: The present inventors created a lung infection model by the following method. First, after preparing Balb/c mice 8 weeks old (female), 150 mg/kg 100 μl of cyclophosphamide was intraperitoneally injected 4 days before infection. After 3 days, 100 μl of 250 mg/kg of cortisone acetate was injected into the subcutaneous fat layer, and the mice were anesthetized after 24 hours. And then the lung infection model mice were prepared by the injection of 70 μl of A. fumigatus fungal solution (about […]) through the nasal cavity.
(§1) The present inventors acquired microPET images 2 hours after injecting the [^18F]FDS (7.4 MBq) according to the present invention into the tail vein of the infected mice, and the acquired images were reconstructed by using the 3D-ordered subset expectation maximization (3D-OSEM) method.
The present inventors confirmed the fungal selective uptake ability of [^18F]FDS of the present invention using small animal infection models. To this end, [^18F]FDS was administered intravenously to Balb/c mice infected with A. fumigatus in the lung prepared in Example 4, and microPET images were acquired and analyzed.

A further test concerns A. fumigatus. As to the kind of experiment: In vitro uptake of [^18F]FDS by cultured strains (gamma counter). Type of test: cell-based, Aspergillus fumigatus. Conditions: 1×10^8 per mL, 0.74 MBq, incubated 2 hours (FIG. 3). Here is the method:
(§2) The present inventors cultured the fungus using the following method. Specifically, Aspergillus fumigatus was smeared on potato dextrose agar medium (or YAG, yeast extract agar medium), and cultured at 30° C. for 2-3 days. Thereafter, the culture plate was washed with sterile physiological saline and Tween 20 [10 μl (1 drop)] and filtered with sterile gauze (or 40 μm-pore insertion filter). Then, the pellet was recovered using a centrifuge and the number of fungi was confirmed to prepare a bacterial solution of 1.5×10^9 conida/mL. Rhizopus arrhizus isolated from the patient was also cultured in the same way as A. fumigatus, prepared a fungal solution, and used for in vitro experiments. For Candida albicans, a strain isolated from the patient was also used, and cultured in SDA medium for 2-3 days. After recovering from the medium, a fungal solution was prepared.
(§3) The present inventors performed in vitro experiments on the strain cultured in Example 2 above. Specifically, each strain was prepared to be 1×10^8 per 1 mL of medium, and 1 mL was dispensed into tubes. The experiments were performed three times according to the experimental period, and 0.74 MBq of [^18F]FDS synthesized as described above was injected and incubated for 2 hours in the incubator. […] After washing twice with phosphate buffer, the filtered fungi were collected and the intake was measured with a gamma counter. […]

A further test has as its system fungi. As to the kind of experiment: In vitro uptake of [^18F]FDS, fungi compared with bacteria. Type of test: cell-based. Conditions: in vitro experiment; fungi vs bacteria. Here is the method: (§4) The present inventors performed in vitro experiments on the strain cultured in Example 2 above. Specifically, each strain was prepared to be 1×10^8 per 1 mL of medium, and 1 mL was dispensed into tubes. The experiments were performed three times according to the experimental period, and 0.74 MBq of [^18F]FDS synthesized as described above was injected and incubated for 2 hours in the incubator. After 2 hours, each strain was divided into a filterable 1.5 mL centrifuge tube, and the fungi and medium were separated through centrifugation. After washing twice with phosphate buffer, the filtered fungi were collected and the intake was measured with a gamma counter.

The next test has as its system C. albicans. Description: In vitro uptake of [^18F]FDS by cultured strains (gamma counter). Type of test: cell-based, Candida albicans. Conditions: 1×10^8 per mL, 0.74 MBq, incubated 2 hours (FIG. 3). Here is the method:
as §2, §3

Test [2] has as its system A. fumigatus muscle infection. Description: microPET imaging in A. fumigatus muscle infection small animal model. Conditions: Balb/c mice, A. fumigatus forelimb muscle infection; 7.4 MBq tail vein; image 2 hours after injection; compared to the control group (FIGS. 5-7). Type of test: in vivo. The method, then:
The present inventors produced a muscle infection model by the following method. First, after preparing Balb/c mice 8 weeks old (female), 150 mg/kg 100 μl of cyclophosphamide was intraperitoneally injected 4 days before infection. After 3 days, 100 μl of 250 mg/kg of cortisone acetate was injected into the subcutaneous fat layer, and the mice were anesthetized after 24 hours. And then the muscle infection model mice were prepared by the injection of 100 μl of A. fumigatus fungal solution (about 1.5×10^8 conidia) into the forelimb muscle of the mice.
as §1

The next test concerns Rhizopus sp. As to the kind of experiment: In vitro uptake of [^18F]FDS by cultured strains (gamma counter). Type of test: cell-based, Rhizopus arrhizus. Conditions: 1×10^8 per mL, 0.74 MBq, incubated 2 hours (FIG. 3). Here is the method: as §2, §3
In test [3] the test system is gram-positive bacterial strains. As to the kind of experiment: In vitro uptake of [^18F]FDS by bacterial strains. Conditions: gram-positive bacterial strains (FIG. 3). Type of test: cell-based. Here is the method: as §4
(§5) The present inventors confirmed the uptake ability of [^18F]FDS of the present invention using fungal strain cultivation.

Test [4] relates to gram-negative bacterial strains. Description: In vitro uptake of [^18F]FDS by bacterial strains. In kind it is cell-based. Conditions: gram-negative bacterial strains (FIG. 3). Here is the method: as §4, §5

Turning to `OC[C@@H](O)[C@@H](O)[C@H](O)[C@@H]([18F])CO` [[^18F]FDS, 2-deoxy-2-[^18F]fluorosorbitol], the “uptake of [^18F]FDS in the lungs (microPET)” value in test [1] is reported as “very high selective uptake”. The “uptake of [^18F]FDS” value is recorded as “very high selective uptake” with A. fumigatus; “very high selective uptake” in the test on C. albicans; “very high selective uptake” in the test on Rhizopus sp.; “did not show no uptake” in test [3]; “showed uptake” in test [4]. The “degree of uptake of [^18F]FDS by fungi relative to bacterial uptake” value with fungi is given as “more than 10 times”. The “uptake of [^18F]FDS at the muscle infection site (microPET)” value in test [2] is given as “very high selective uptake”.
